Experimental data from ChEMBL document CHEMBL3861984, “Synthesis and evaluation of 2,5 and 2,6 pyridine-based CXCR4 inhibitors” (Bioorg Med Chem, 2016).
Active and inactive are the calls of the source. No cut-off for these calls is given here.

Tests used:
[1] = target: T1, C-X-C chemokine receptor type 4 (Homo sapiens, UniProt P61073); assay: Displacement of biotinylated-TN14003 from CXCR4 in human MDA-MB-231 cells assessed as reduction in fluorescence preincubated for 10 mins followed by biotinylated-TN14003 addition measured after 30 mins by streptavidin-rhodamine staining based microscopic analysis; format: cell-based
[2] = test system: Mus musculus; assay: Anti-inflammatory activity in C57BL/6J mouse assessed as suppression of carrageenan-induced paw edema at 10 mg/kg administered 30 mins after carrageenan challenge and then once daily following initial dose measured 74 hrs post inflammation induction and 2 hrs post last dose relative to control; format: functional
[3] = target: T1, C-X-C chemokine receptor type 4; assay: Inhibition of CXCR4/CXCL12 interaction-mediated chemotaxis in human MDA-MB-231 cells assessed as inhibition of cell invasion at 100 nM after 22 hrs by hematoxylin/eosin dye-based matrigel assay relative to control
[4] = test system: Mus musculus; assay: Toxicity in carrageenan-induced paw edema C57BL/6J mouse model assessed as mortality at 10 mg/kg administered 30 mins after carrageenan challenge and then once daily following initial dose measured 74 hrs post inflammation induction and 2 hrs post last dose; format: organism-based; conditions: in vivo
[5] = test system: Mus musculus; assay: Antiinflammatory activity in C57BL/6J mouse paw assessed as reduction in carrageenan-induced paw edema volume at 10 mg/kg administered 30 mins after carrageenan challenge and then once daily following initial dose measured 74 hrs post inflammation induction and 2 hrs post last dose by hematoxylin and eosin-staining based assay; format: functional, organism-based

T1 sequence (P61073 whole entry): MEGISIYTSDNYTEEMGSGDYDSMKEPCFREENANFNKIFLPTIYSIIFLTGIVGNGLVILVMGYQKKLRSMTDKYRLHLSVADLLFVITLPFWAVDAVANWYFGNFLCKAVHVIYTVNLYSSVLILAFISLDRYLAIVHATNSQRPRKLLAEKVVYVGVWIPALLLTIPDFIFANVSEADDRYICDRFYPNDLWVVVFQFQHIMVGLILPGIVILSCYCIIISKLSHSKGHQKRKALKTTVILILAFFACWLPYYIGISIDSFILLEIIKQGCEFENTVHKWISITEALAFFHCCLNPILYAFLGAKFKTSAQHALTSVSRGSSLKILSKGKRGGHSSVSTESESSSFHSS

| SMILES | EC [1] | inhibition in vivo at 10 mg/kg [2] | inhibition [3] | Activity [4] | Activity [5] | IC50 [1] |
| --- | --- | --- | --- | --- | --- | --- |
| FC(F)(F)c1ccc(NCc2cccc(CNc3ccc(C(F)(F)F)cc3)n2)cc1 | 1 nM | 20.3% | 52% | Non-Toxic |  |  |
| Cc1cccc(NCc2ccc(CNc3cccc(C)c3)nc2)c1 | 1 nM |  | 58% | Non-Toxic |  |  |
| COc1ccccc1NCc1cccc(CNc2ccccc2OC)n1 | 1000 nM |  | 0% |  |  |  |
| COc1cccc(NCc2cccc(CNc3cccc(OC)c3)n2)c1 | 100 nM | 20.1% | 37% | Non-Toxic |  |  |
| CCc1ccccc1NCc1cccc(CNc2ccccc2CC)n1 | 1 nM | 18.1% | 59% | Non-Toxic |  |  |
| Clc1ccccc1NCc1cccc(CNc2ccccc2Cl)n1 | > 1000 nM |  |  |  |  |  |
| Cc1cccc(NCc2cccc(CNc3cccc(C)c3)n2)c1 | 100 nM | 20.2% | 60% | Non-Toxic |  |  |
| Fc1cccc(NCc2cccc(CNc3cccc(F)c3)n2)c1 | 10 nM | 20.3% | 50% | Non-Toxic | Active |  |
| CCc1ccc(NCc2cccc(CNc3ccc(CC)cc3)n2)cc1 | 1 nM | 42% | 64% | Non-Toxic |  | 19.6 nM |
| CCOc1ccc(CNc2ccc(NCc3ccc(OCC)cc3)nc2)cc1 | 100 nM |  | 60% | Non-Toxic |  |  |
| FC(F)(F)c1ccccc1NCc1cccc(CNc2ccccc2C(F)(F)F)n1 | > 1000 nM |  |  |  |  |  |
| c1cc(CN2CCOCC2)nc(CN2CCOCC2)c1 | 10 nM | 39.1% | 63% | Non-Toxic |  | 35.7 nM |

More lines, main results first:

| EC [1] | SMILES | inhibition in vivo at 10 mg/kg [2] | inhibition [3] | Activity [4] | Activity [5] | IC50 [1] |
| --- | --- | --- | --- | --- | --- | --- |
| > 1000 nM | O=[N+]([O-])c1cccc(NCc2cccc(CNc3cccc([N+](=O)[O-])c3)n2)c1 |  |  |  |  |  |
| 1000 nM | Clc1cccc(CNc2ccc(NCc3cccc(Cl)c3)nc2)c1 |  |  |  |  |  |
| 100 nM | Fc1ccc(NCc2cccc(CNc3ccc(F)cc3)n2)cc1 |  | 5% |  |  |  |
| > 1000 nM | Cc1ccccc1NCc1cccc(CNc2ccccc2C)n1 |  |  |  |  |  |
| 1000 nM | CCc1cccc(NCc2cccc(CNc3cccc(CC)c3)n2)c1 |  |  |  |  |  |
| 100 nM | COc1ccc(NCc2cccc(CNc3ccc(OC)cc3)n2)cc1 |  | 5% |  |  |  |
| 100 nM | COc1ccccc1NCc1ccc(CNc2ccccc2OC)nc1 |  | < 5% |  |  |  |
| 1000 nM | COc1ccc(CNc2ccc(NCc3ccc(OC)cc3)nc2)cc1 |  |  |  |  |  |
| 1000 nM | Cc1ccc(NCc2cccc(CNc3ccc(C)cc3)n2)cc1 |  |  |  |  |  |
| > 1000 nM | O=[N+]([O-])c1ccc(NCc2cccc(CNc3ccc([N+](=O)[O-])cc3)n2)cc1 |  |  |  |  |  |
| 100 nM | Clc1cccc(NCc2cccc(CNc3cccc(Cl)c3)n2)c1 |  | 34% |  |  |  |
| > 1000 nM | CSc1ccc(NCc2cccc(CNc3ccc(SC)cc3)n2)cc1 |  |  |  |  |  |
| 1000 nM | Fc1cccc(NCc2ccc(CNc3cccc(F)c3)nc2)c1 |  |  |  |  |  |
| 1000 nM | Fc1ccccc1NCc1cccc(CNc2ccccc2F)n1 |  |  |  |  |  |
| 100 nM | Clc1ccc(NCc2cccc(CNc3ccc(Cl)cc3)n2)cc1 |  | 21% |  |  |  |
| > 1000 nM | Fc1ccc(CNc2ccc(NCc3ccc(F)cc3)nc2)cc1 |  |  |  |  |  |
| 100 nM | c1ccc(NCc2cccc(CNc3ccccc3)n2)cc1 |  | < 1% |  |  |  |
| 1000 nM | FC(F)(F)c1cccc(NCc2cccc(CNc3cccc(C(F)(F)F)c3)n2)c1 |  | 15% |  |  |  |
